Assay results taken from ChEMBL document CHEMBL1201862, “PubChem BioAssay data set” (2004).
Activity calls are given as the source filed them.

Experiments:
BJ = experiment: cells; format: functional, cell-based; settings: Homo sapiens
[1] = molecular target: Sphingosine 1-phosphate receptor 1 (Homo sapiens, UniProt P21453); format: functional;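 note: Tango beta-arrestin reporter U2OS cells stimulated with S1P near its EC80; inhibitor potency meaning antagonism of receptor activation by the natural agonist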
[2] = molecular target: Neurotensin receptor type 1 (Homo sapiens, UniProt P30989); format: functional;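 note: Image-based confirmatory dose-response assay measuring agonist activity at NTR1; NTR1-expressing U2OS osteosarcoma cells imaged for beta-arrestin GFP spot formation; agonist potency where compounds increase beta-arrestin recruitment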
[3] = reduction of Shn3 3'UTR-driven luciferase in osteoblasts – cell-based, Clone20 osteoblasts, firefly luciferase, cherry-picked, dose response (AID 624132); format: functional;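 note: firefly luciferase luminescence from reporter carrying the Shn3 3'UTR in osteoblasts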
Beta-galactosidase = Beta-galactosidase (Escherichia coli, UniProt Q8VNN2); experiment: PubChem AID 485352; format: functional
[4] = molecular target: Dual specificity tyrosine-phosphorylation-regulated kinase 1A (Rattus norvegicus, UniProt Q63470); format: biochemical, Homo sapiens
[5] = molecular target: T1, 1-phosphatidylinositol 4,5-bisphosphate phosphodiesterase gamma-1 (Homo sapiens, UniProt P19174); experiment: Counterscreen for inhibitors of phospholipase C isozymes (PLC-B3): Fluorescence-based biochemical high throughput dose response assay to identify inhibitors of phospholipase C isozymes (PLC-gamma1).
T1 sequence (P19174 whole entry): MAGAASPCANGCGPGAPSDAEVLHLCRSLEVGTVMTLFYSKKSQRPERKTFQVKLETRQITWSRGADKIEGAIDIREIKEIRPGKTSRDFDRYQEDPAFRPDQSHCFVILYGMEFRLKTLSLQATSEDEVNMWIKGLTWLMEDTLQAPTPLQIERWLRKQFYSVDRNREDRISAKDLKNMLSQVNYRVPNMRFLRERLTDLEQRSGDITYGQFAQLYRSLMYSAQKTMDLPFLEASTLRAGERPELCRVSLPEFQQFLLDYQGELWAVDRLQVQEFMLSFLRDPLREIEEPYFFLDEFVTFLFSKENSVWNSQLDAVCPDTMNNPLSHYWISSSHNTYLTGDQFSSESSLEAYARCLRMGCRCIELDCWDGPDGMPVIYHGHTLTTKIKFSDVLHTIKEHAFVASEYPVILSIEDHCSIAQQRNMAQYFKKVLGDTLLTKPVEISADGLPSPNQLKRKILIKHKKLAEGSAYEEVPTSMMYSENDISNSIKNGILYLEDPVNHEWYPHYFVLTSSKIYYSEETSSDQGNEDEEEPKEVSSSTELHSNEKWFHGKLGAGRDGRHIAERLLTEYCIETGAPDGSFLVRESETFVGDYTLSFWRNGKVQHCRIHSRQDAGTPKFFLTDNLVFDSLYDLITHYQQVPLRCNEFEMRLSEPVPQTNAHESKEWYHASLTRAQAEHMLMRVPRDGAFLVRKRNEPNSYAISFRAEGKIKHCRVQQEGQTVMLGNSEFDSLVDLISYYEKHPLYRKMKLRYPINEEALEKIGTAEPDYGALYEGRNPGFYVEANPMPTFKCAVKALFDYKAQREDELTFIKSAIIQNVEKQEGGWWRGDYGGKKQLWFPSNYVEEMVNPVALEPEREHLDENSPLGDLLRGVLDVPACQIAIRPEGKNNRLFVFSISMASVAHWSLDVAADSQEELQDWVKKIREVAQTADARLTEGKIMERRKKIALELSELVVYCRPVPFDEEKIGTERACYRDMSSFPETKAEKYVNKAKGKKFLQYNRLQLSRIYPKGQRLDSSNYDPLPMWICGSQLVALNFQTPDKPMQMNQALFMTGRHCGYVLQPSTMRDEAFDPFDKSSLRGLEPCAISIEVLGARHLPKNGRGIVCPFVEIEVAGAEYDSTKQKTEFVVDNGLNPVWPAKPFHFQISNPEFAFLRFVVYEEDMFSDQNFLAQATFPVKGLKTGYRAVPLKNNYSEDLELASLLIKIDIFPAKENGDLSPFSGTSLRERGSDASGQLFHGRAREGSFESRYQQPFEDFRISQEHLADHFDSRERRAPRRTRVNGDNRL

[6] = molecular target: T2, 1-phosphatidylinositol 4,5-bisphosphate phosphodiesterase beta-3 (Homo sapiens, UniProt Q01970); experiment: Fluorescence-based biochemical high throughput dose response assay to identify inhibitors of phospholipase C isozymes (PLC-B3).
T2 sequence (Q01970 whole entry): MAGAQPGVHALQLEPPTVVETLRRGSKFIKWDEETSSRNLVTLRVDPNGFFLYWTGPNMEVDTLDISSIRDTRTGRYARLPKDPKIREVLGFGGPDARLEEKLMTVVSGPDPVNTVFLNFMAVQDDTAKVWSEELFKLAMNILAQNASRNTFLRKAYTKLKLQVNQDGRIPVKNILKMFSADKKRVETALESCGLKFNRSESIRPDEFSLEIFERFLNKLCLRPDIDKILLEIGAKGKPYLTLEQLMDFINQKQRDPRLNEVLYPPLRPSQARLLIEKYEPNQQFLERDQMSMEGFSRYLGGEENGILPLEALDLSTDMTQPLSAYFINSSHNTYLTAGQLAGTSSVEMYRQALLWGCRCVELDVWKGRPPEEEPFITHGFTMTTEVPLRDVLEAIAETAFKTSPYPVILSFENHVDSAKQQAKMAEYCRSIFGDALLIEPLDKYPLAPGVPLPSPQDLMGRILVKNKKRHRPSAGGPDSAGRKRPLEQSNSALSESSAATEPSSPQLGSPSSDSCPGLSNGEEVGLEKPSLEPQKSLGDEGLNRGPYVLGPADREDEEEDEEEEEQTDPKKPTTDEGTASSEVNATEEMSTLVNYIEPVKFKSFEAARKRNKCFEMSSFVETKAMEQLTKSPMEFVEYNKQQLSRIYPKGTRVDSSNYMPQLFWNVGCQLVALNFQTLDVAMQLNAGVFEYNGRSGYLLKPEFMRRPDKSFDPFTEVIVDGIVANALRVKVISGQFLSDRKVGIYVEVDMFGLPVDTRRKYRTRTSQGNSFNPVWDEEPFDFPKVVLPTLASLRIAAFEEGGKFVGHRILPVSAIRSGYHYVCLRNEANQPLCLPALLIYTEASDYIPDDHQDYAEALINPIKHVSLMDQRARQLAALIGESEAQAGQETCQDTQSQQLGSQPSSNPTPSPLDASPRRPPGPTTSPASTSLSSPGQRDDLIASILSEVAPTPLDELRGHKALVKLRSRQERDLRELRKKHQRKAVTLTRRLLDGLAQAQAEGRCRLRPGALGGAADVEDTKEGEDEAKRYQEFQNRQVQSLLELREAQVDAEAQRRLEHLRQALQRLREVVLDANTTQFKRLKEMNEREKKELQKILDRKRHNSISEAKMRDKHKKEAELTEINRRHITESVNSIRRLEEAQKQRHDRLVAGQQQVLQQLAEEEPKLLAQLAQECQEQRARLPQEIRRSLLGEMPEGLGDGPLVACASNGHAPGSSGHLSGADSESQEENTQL

[7] = viability of HCT116 lacking mutant beta-catenin – cell-based, human colon tumor, dose response (AID 1045); format: functional;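 note: HCT116 colon tumor cells with beta catenin knocked out; cells exposed to compound for 60 hours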

Chain of Sphingosine 1-phosphate receptor 1 (P21453 whole entry): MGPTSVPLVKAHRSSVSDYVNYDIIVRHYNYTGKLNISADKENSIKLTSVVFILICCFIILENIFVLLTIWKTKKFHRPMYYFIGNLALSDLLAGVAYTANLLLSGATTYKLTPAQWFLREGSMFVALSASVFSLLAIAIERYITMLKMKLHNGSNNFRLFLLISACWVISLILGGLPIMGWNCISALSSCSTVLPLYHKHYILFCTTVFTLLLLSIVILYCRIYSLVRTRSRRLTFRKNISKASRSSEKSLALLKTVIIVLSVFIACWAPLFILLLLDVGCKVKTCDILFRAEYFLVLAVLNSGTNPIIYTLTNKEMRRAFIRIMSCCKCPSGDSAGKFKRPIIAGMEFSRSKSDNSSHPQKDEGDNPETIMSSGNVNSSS
Chain of Beta-galactosidase (Q8VNN2 whole entry): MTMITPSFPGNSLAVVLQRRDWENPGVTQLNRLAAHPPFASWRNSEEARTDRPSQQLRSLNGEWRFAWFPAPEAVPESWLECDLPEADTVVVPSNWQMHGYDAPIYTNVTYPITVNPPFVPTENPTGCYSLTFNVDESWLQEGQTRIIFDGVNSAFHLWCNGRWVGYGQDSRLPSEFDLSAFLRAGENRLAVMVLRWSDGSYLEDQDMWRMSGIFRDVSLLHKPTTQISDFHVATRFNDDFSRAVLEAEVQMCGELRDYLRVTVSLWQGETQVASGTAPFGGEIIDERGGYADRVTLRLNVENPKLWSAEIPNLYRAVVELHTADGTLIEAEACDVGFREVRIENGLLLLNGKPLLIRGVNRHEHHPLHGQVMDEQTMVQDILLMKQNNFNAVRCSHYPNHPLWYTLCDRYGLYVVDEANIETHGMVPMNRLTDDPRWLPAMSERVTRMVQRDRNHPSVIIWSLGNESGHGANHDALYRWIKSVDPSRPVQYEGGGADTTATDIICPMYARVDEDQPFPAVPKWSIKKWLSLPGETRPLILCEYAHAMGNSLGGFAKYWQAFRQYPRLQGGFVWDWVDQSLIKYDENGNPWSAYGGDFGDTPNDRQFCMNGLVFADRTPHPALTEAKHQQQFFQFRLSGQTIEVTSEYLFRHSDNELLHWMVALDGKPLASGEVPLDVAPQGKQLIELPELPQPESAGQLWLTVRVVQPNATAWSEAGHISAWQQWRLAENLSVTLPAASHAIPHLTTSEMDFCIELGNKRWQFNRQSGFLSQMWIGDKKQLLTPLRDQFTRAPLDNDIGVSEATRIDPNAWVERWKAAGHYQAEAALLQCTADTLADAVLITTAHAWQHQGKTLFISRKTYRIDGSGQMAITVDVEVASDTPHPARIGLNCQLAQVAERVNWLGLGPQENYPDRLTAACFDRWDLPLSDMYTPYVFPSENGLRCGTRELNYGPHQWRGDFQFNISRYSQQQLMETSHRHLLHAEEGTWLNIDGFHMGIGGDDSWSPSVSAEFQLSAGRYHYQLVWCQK
Chain of Neurotensin receptor type 1 (P30989 whole entry): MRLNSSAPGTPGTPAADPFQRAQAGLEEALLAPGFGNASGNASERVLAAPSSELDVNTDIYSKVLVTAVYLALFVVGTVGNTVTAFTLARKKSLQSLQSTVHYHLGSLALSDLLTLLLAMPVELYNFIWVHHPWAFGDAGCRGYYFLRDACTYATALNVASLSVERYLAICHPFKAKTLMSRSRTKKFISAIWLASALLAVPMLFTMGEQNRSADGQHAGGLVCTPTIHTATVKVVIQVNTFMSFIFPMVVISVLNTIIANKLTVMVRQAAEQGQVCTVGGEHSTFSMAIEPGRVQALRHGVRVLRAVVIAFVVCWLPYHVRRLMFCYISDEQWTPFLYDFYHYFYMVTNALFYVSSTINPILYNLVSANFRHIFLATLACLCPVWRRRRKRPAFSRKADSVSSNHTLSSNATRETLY

COC(=O)C[C@]1(C(=O)OC)CN(C#N)N(c2ccc(Cl)cc2)C12c1ccccc1-c1ccccc12
EC50 (BJ): 2.7 µM (active)
IC50 [1]: 5.39 µM (active)
EC50 [2]: 3.27 µM (active)
AC50 [3]: 1.88 µM (active)

CCCCn1c(NC(=O)c2ccco2)c(C(=O)OCC)c2nc3ccccc3nc21
EC50 (Beta-galactosidase): > 40 µM (inactive)

Cc1ccccc1NC1=C/C(=N\S(=O)(=O)c2ccc(C(=O)O)cc2)c2ccccc2C1=O
AC50 [4]: 4.11 µM (active)
IC50 [5]: 90.1 µM (inactive)
IC50 [6]: > 122 µM (inactive)

Cc1ccc(NC2=C/C(=N/S(=O)(=O)c3cccs3)c3ccccc3C2=O)cc1
EC50 [7]: 2.82 µM (active)
